Measured values from US20110251238A1, “PPAR AGONIST COMPOSITIONS AND METHODS OF USE” (BIOPHARMED, priority 2008, published 2011).

What was measured:
[1] = system: HT-22, an immortalized mouse hippocampal cell line; experiment: Neuroprotection of HT-22 cells against toxic insults (calcein viability assay); format: cell-based
Protocol: It is known (P. Aoun, 2003 Eur. J. Pharm. 472:65-71) that Peroxisome proliferator-activated receptors (PPARs) are involved in regulating many metabolic and inflammatory processes. The present invention explores the role of PPAR ligands in protecting neuronal cultures from toxic insults. For that purpose, the new PPAR agonists described in Example 1 were screened for their potential role as neuroprotective compounds. Experiments were performed using HT-22, an immortalized mouse hippocampal cell line, and SK-N-SH, a human neuroblastoma cell line. HT-22 was selected because it expresses PPARγ receptors. Cell viability against glutamate, hydrogen peroxide (H2O2), and serum deprivation insults was determined using a calcein assay. […] Additionally, compounds were protective even when administered simultaneously with glutamate, or for up to 8 h postglutamate insult.
HT-22, an immortalized mouse hippocampal cell line, and SK-N-SH, a human neuroblastoma cell line, were used. HT-22 cells were obtained from David Schubert (Salk Institute, San Diego, Calif.). The HT-22 line was originally selected from HT-4 cells based on glutamate sensitivity. SK-N-SH cells were obtained from ATCC (Manassas, Va.). HT-22 and SK-N-SH cells were grown to confluency in Dulbecco's modified essential medium (DMEM) and RPMI-1640 media, respectively, and supplemented with 10% charcoal/dextran-treated fetal bovine serum (FBS) and […] gentamicin at 37° C. under 95% air/5% CO2. HT-22 cells were plated at a density of 50,000 cells/ml (5000 cells/well), and SK-N-SH cells were plated at a density of 120,000-150,000 cells/ml (12,000-15,000 cells/well) in 96-well plates. In most studies, wells were pretreated with PPAR ligands over a wide dose range at various times prior to being subjected to either glutamate, hydrogen peroxide, or serum deprivation insults. In some studies, the insults were applied prior to the addition of the PPAR ligand.
The following analogues were tested on the HT22 cell line for their neuroprotective effect against glutamate insult and for their anti-inflammatory activity on relevant, models including HT22 cell line.

[2] = system: Hs683 (human glioma); experiment: Growth inhibition, MTT colorimetric assay, HS683; format: cell-based; conditions: Homo sapiens, Hs 683, 72 h; glioma; 3 days with drug; means of six values; unit inferred; read-out: IC50 HS683
In short: (§1)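 Human tumour cell lines were exposed to compounds for 3 days. Proliferation inhibition was read by MTT colorimetric assay and expressed as IC50. Values are means of six determinations.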

[3] = system: SKMEL28 (human melanoma); experiment: Growth inhibition, MTT colorimetric assay, SKMEL-28; format: cell-based; conditions: Homo sapiens, SK-MEL-28, 72 h; melanoma; 3 days with drug; means of six values; unit inferred; read-out: IC50 SKMEL-28
In short: (§2)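 3-day continuous drug exposure; MTT readout; IC50 = mean of 6 values, SE <5% of mean.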

[4] = system: caspases 9; experiment: Caspases 9 activation in HL60 cells (LEHD reagent); format: cell-based, human; conditions: 48 hours, 1 μM, 0.1 μM and 0.01 μM
Source text: (§3) 7223, using standard commercially available diagnostic kits (Calbiochem, USA). Assay reagents used were DEVD for caspases 3/7, […] for caspases 8, and LEHD for caspases 9. Moreover, colchicine was used as reference compound that induces this activity of caspases.

[5] = system: orthotopic grafts of human glioblastoma cell lines; experiment: Orthotopic grafts of human glioblastoma cell lines in brains of nude mice, survival; format: in vivo; conditions: FIG. 1
Protocol: Additional in vivo experiments were carried on nude mice. Briefly, orthotopic grafts of human glioblastoma cell lines were implanted into the brains of nude mice according to the general methodology of Branle et al., (2002) Cancer, 95, 641-655) and Lefranc et al., (2004) Clin. Can. Res., 10, 8250-8265. […] Results are shown in FIG. 1, illustrating the comparative activity of the PPAR agonist BPM18,708 and the reference drug Temodar™ (temozolomide) the only FDA approved drug for glioblastoma grade IV.

[6] = system: caspases 3/7; experiment: Caspases 3/7 activation in HL60 cells (DEVD reagent); format: cell-based, human; conditions: 48 hours
Source text: as §3

[7] = system: U373 (human glioblastoma-astrocytoma); experiment: Growth inhibition, MTT colorimetric assay, U373; format: cell-based; conditions: Homo sapiens, U373 MG, 72 h; glioma; 3 days with drug; means of six values; unit inferred; read-out: IC50 U373
In short: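 Compounds passing an activity cut-off on KB3 cells were carried forward. Cultures grew in presence of drug for 3 days, then proliferation was measured by MTT and expressed as IC50.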

[8] = system: T98G (glioblastoma); experiment: cells; format: cell-based; conditions: Homo sapiens, T98G, 72 h; glioma; 3 days with drug; means of six values; unit inferred; read-out: IC50 T98G
In short: as §1

[9] = system: A549 (human lung adenocarcinoma epithelial); experiment: Growth inhibition, MTT colorimetric assay, A549; format: cell-based; conditions: Homo sapiens, A549, 72 h; carcinoma; 3 days with drug; means of six values; unit inferred; read-out: IC50 A549
In short: as §1

[10] = system: RhTP (rhabdomyosarcoma); experiment: Growth inhibition, MTT colorimetric assay, RhTp; format: cell-based; conditions: 72 h; 3 days with drug; means of six values; unit inferred; read-out: IC50 RhTp
In short: as §2

Oc1ccc(CN(Cc2ccc(C(F)(F)F)cc2)Cc2ccc(O)c3ncccc23)c2cccnc12 [BPM18,708, 5,5′-(4-(trifluoromethyl)benzylazanediyl)bis(methylene)diquinolin-8-ol]
neuroprotection from H2O2 insult [1]: dose-dependent neuroprotection
neuroprotection from glutamate insult [1]: dose-dependent neuroprotection
IC50 [2]: 10 nM
IC50 [3]: > 10000 nM
activation of caspases 9 [4]: no effect
in vivo activity (survival) compared with Temodar [5]: at least as active as Temodar™
activation of caspases 3/7 ([6]; 0.01 μM): neither BPM18,708 nor BPM19,107 has an effect
activation of caspases 3/7 ([6]; 0.1 μM): strong effect
activation of caspases 3/7 ([6]; 1 μM): strong effect
IC50 [7]: 44 nM
IC50 [8]: 99 nM
IC50 [9]: 8 nM
IC50 [10]: 81 nM
